Like-named read-outs stand apart in the source and are kept apart here.
Target: T1, porcine pancreatic elastase (Sus scrofa, UniProt P00772)
T1 construct: purchased Sigma n.E. 0.127
Test: antielastase activity (method of Bieth and coll., cleavage of N-succinyl-L-alanyl-L-alanyl-L-alanyl-para-nitroanilide, UV at 410 nm)
Type: biochemical
Experimental: The antielastase activity of compounds (I) was evidenced by the method described by Bieth and coll. (Biochim. med. [formula] 350 (1974)), with slight changes when the test compounds were poorly water-soluble.
The determination of the antielastase activity was carried out using porcine pancreatic elastase (90 U/mg/weight; 120 U/mg protein-biuret-n.E. 0.127 Sigma) as the enzyme in solution. The enzyme-containing solution was prepared dissolving the enzyme in 0,2 M phosphate buffer, pH 8, to a final concentration of 1 microgram/ml.
The substrate solution was N-succinyl-L-alanyl-L-alanyl-L-alanyl-para-nitroanilide (available from Sigma cat. N.S. 4760). The substrate was dissolved in dimethylsulfoxide to a concentration of […] (125 mM).
The procedure to determine the antielastase activity consisted of the following steps: • 2,9 ml of the enzyme solution with antielastase activity were placed into a quartz cuvette with 10 mm optical path, then 0,5 ml of bidistilled water were added. This standard solution was subsequently added with the different solutions of the various inhibitors.
The test solutions (standard and standard + inhibitor) were incubated at 30°C for 10', then 20 µl of substrate were added and the solution in the cuvette was stirred. The UV spectrum was recorded at 410 nm for 10' with a Beckman mod. 24 spectrophotometer against a blank consisting of the same enzyme-free standard solution.

[1] = enzyme 1 microgram/ml in 0,2 M phosphate buffer, pH 8, incubated at 30°C for 10', read-out: I₅₀ (converted)

T1 sequence (P00772 27-266): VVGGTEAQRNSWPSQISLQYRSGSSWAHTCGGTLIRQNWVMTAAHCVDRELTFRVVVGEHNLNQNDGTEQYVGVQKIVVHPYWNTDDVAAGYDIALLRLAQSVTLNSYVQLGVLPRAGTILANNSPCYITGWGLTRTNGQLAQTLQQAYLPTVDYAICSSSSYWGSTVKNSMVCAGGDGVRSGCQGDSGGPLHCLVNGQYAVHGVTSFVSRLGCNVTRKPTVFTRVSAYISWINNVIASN

Structure (SMILES)	IC50 [1] [µM]	further results
C[C@@H]1O[C@@H](OC[C@H]2O[C@@H](Oc3c(-c4ccc(O)c(O)c4)oc4cc(O)cc(O)c4c3=O)[C@H](O)[C@@H](O)[C@@H]2O)[C@H](O)[C@H](O)[C@H]1O [Rutin]	983	
COc1ccc(-c2cc(=O)c3c(O)cc(O[C@@H]4O[C@H](CO[C@@H]5O[C@@H](C)[C@H](O)[C@@H](O)[C@H]5O)[C@@H](O)[C@H](O)[C@H]4O)cc3o2)cc1O [Diosmin]		antielastase activity (at the minimum concentration obtained (about 10 mg/ml)): absence of any antielastase activity
COc1ccc(-c2cc(=O)c3c(O)cc(O[C@@H]4O[C@H](CO[C@@H]5O[C@@H](C)[C@H](O)[C@@H](O)[C@H]5O)[C@@H](O)[C@H](O)[C@H]4O)cc3o2)cc1OCCO [Hydrosmin, 3'-hydroxyethyldiosmin]	955	
COc1ccc([C@@H]2CC(=O)c3c(O)cc(O[C@@H]4O[C@H](CO[C@@H]5O[C@@H](C)[C@H](O)[C@@H](O)[C@H]5O)[C@@H](O)[C@H](O)[C@H]4O)cc3O2)cc1O [Esperidin]		IC50: 934 µM

Reference: patent EP0505937A1, “Flavone derivatives, a process for the preparation thereof and pharmaceutical compositions containing them” (GEYMONAT S.p.A., priority 1991, dated 1992)
